Results published in US4214091A, “Antibiotic No. 2-200 and process for producing thereof” (Chugai Seiyaku Kabushiki Kaisha, priority 1977, dated 1980).
Values after ≈ are worked out from the molar mass of the structure shown. Read-outs that look alike come from different tables or passages of the source.

Assays:
[1] = system: Shigella flexneri 2b; test: MIC by agar plate dilution method; type: cell-based; conditions: 24 h, 37° C., read-out: Minimum inhibitory concentration
Description: (§1) The test organisms were incubated by agar plate dilution method at 37° C. for 24 hours, after which their growth was observed. The test organisms were incubated on an NB medium (product of Eiken Kagaku) at 37° C. overnight, and each culture obtained was diluted 10^3 - to 10^4 -fold and stamped on an agar plate. The following agar plate media were used:
(§2) NA: nutrient agar (product of Eiken Kagaku)
(§3) NA+G6P: glucose-6-phosphoric acid (50 μg/ml) plus nutrient agar
(§4) Anti-3A: antibiotic medium No. 3 agar (product of Difco)
(§5) MHA: Mueller Hinton Agar (product of Eiken Kagaku)

[2] = system: Klebsiella pneumoniae 15c; test: MIC by agar plate dilution method; type: cell-based; conditions: 24 h, read-out: Minimum inhibitory concentration
Description: as §1, §2, §3, §4, §5

[3] = system: Staphylococcus aureus 222; test: MIC by agar plate dilution method; type: cell-based; conditions: Staphylococcus aureus, 222, 24 h, 37° C., read-out: Minimum inhibitory concentration
Description: as §1, §2, §3, §4, §5

[4] = system: Staphylococcus epidermidis T0-3; test: MIC by agar plate dilution method; type: cell-based; conditions: T03, 24 h, 37° C., read-out: Minimum inhibitory concentration
Description: as §1, §2, §3, §4, §5

[5] = system: Bacillus thuringensis; test: MIC by agar plate dilution method; type: cell-based; conditions: 24 h, 37° C., read-out: Minimum inhibitory concentration
Description: as §1, §2, §3, §4, §5

[6] = system: Serratia marrcescens T-50; test: MIC by agar plate dilution method; type: cell-based; conditions: for MIC: Serratia
Description: as §1, §2, §3, §4, §5

[7] = system: Pseudomonas aeruginosa M57740; test: MIC by agar plate dilution method; type: cell-based
Description: as §1, §2, §3, §4, §5

[8] = system: Pseudomonas aeruginosa J-272; test: MIC by agar plate dilution method; type: cell-based; conditions: 37° C., 24 hours
Description: as §1, §2, §3, §4, §5

[9] = system: Staphylococcus aureus A-5; test: MIC by agar plate dilution method; type: cell-based; conditions: A5, 24 h, 37° C., read-out: Minimum inhibitory concentration
Description: as §1, §2, §3, §4, §5

[10] = system: Bacillus subtilis PCI-219; test: MIC by agar plate dilution method; type: cell-based; conditions: 37° C., 24 hours
Description: as §1, §2, §3, §4, §5

[11] = system: Salmonella paratyphi A; test: MIC by agar plate dilution method; type: cell-based; conditions: Salmonella enterica, 24 h
Description: as §1, §2, §3, §4, §5

[12] = system: Staphylococcus aureus 209P; test: MIC by agar plate dilution method; type: cell-based; conditions: 24 h, 37° C., read-out: Minimum inhibitory concentration
Description: as §1, §2, §3, §4, §5

[13] = system: Pseudomonas aeruginosa G-75; test: MIC by agar plate dilution method; type: cell-based; conditions: 37° C., 24 hours
Description: as §1, §2, §3, §4, §5

[14] = system: Escherichia coli NIHJ; test: MIC by agar plate dilution method; type: cell-based; conditions: 24 h, 37° C., read-out: Minimum inhibitory concentration
Description: as §1, §2, §3, §4, §5

[15] = system: Staphylococcus aureus JU-5; test: MIC by agar plate dilution method; type: cell-based; conditions: JU5, 24 h, 37° C., read-out: Minimum inhibitory concentration
Description: as §1, §2, §3, §4, §5

[16] = system: Bacillus cereus; test: MIC by agar plate dilution method; type: cell-based; conditions: 37° C., 24 hours
Description: as §1, §2, §3, §4, §5

[17] = system: Escherichia coli No. 9; test: MIC by agar plate dilution method; type: cell-based; conditions: NO.9, 24 h, 37° C., read-out: Minimum inhibitory concentration
Description: as §1, §2, §3, §4, §5

[18] = system: Klebsiella pneumoniae 3K25; test: MIC by agar plate dilution method; type: cell-based; conditions: 3K25, 24 h, 37° C., read-out: Minimum inhibitory concentration
Description: as §1, §2, §3, §4, §5

[19] = system: Proteus mirabilis 9'; test: MIC by agar plate dilution method; type: cell-based; conditions: 24 h, 37° C., read-out: Minimum inhibitory concentration
Description: as §1, §2, §3, §4, §5

[20] = system: Salmonella typhi TANAKA; test: MIC by agar plate dilution method; type: cell-based; conditions: Salmonella enterica, 24 h
Description: as §1, §2, §3, §4, §5

[21] = system: Shigella sonnei; test: MIC by agar plate dilution method; type: cell-based; conditions: 24 h, 37° C., read-out: Minimum inhibitory concentration
Description: as §1, §2, §3, §4, §5

[22] = system: bacteria of genus Salmonella; test: antibacterial activity (general statement); type: cell-based
[23] = system: 5-week-old ddY male mice; conditions: mouse, in vivo
Description: The crystal of the antibiotic No. 2-200 obtained in Example 4 was floated in sterile distilled water, mixed with 5% caustic soda to adjust the pH to 7.0, and dissolved to make a solution. The solution was adminstered to 5-week-old ddY male mice to examine its actuate toxicity as well as delayed toxicity. During 10 days that followed the administration, the weight of each mouse, its food intake and water intake were measured.

[24] = NA + G6P (50 μg/ml), 37° C., 24 hours
[25] = read-out: Minimum inhibitory concentration, Anti-3A, 37° C.
[26] = read-out: Minimum inhibitory concentration, MHA, 37° C.
[27] = read-out: Minimum inhibitory concentration, NA + G6P (50 μg/ml), 37° C.
[28] = read-out: Minimum inhibitory concentration, NA, 37° C.

C=CC(C)=CC1(C)SC(=O)C(C)=C1O (single isomer, unassigned) [No. 2-200]
MIC ([1]; Anti-3A): 3.12 µg/mL (≈ 14.8 µM) | MIC ([1]; MHA): 1.56 µg/mL (≈ 7.42 µM) | MIC ([1]; NA + G6P (50 μg/ml)): 6.25 µg/mL | MIC ([1]; NA): 6.25 µg/mL (≈ 29.7 µM) | MIC ([2]; Anti-3A, 37° C., 24 hours): 50 µg/mL (≈ 238 µM) | MIC [2, 24]: 100 µg/mL | MIC ([2]; NA, 37° C., 24 hours): 100 µg/mL (≈ 476 µM) | MIC [2]: 12.5 µg/mL (≈ 59.4 µM) | MIC ([3]; Anti-3A): > 400 µg/mL | MIC ([3]; MHA): 100 µg/mL (≈ 476 µM) | MIC ([3]; NA + G6P (50 μg/ml)): ≥ 400 µg/mL | MIC ([3]; NA): > 400 µg/mL | MIC ([4]; Anti-3A): 100 µg/mL (≈ 476 µM) | MIC ([4]; MHA): 50 µg/mL (≈ 238 µM) | MIC ([4]; NA + G6P (50 μg/ml)): 50 µg/mL | MIC ([4]; NA): 50 µg/mL (≈ 238 µM) | MIC ([5]; Anti-3A): 50 µg/mL (≈ 238 µM) | MIC ([5]; MHA): 50 µg/mL (≈ 238 µM) | MIC ([5]; NA + G6P (50 μg/ml)): 25 µg/mL | MIC ([5]; NA): 50 µg/mL (≈ 238 µM) | Minimum inhibitory concentration [6, 24]: 50 µg/mL | MIC ([6]; T50, 24 h, read-out: Minimum inhibitory concentration, Anti-3A, 37° C.): 12.5 µg/mL (≈ 59.4 µM) | MIC ([6]; T50, 24 h, read-out: Minimum inhibitory concentration, MHA, 37° C.): 1.56 µg/mL (≈ 7.42 µM) | MIC ([6]; T50, NA, 37° C., 24 hours, read-out: Minimum inhibitory concentration): 50 µg/mL (≈ 238 µM) | MIC ([7]; M57740, 24 h, read-out: Minimum inhibitory concentration, Anti-3A, 37° C.): 1.56 µg/mL (≈ 7.42 µM) | MIC ([7]; M57740, 24 h, read-out: Minimum inhibitory concentration, NA + G6P (50 μg/ml), 37° C.): 1.56 µg/mL | MIC ([7]; M57740, 24 h, read-out: Minimum inhibitory concentration, NA, 37° C.): 1.56 µg/mL (≈ 7.42 µM) | MIC ([7]; M57740, MHA, 37° C., 24 hours, read-out: Minimum inhibitory concentration): ≤ 0.78 µg/mL | Minimum inhibitory concentration ([8]; Anti-3A): > 400 µg/mL | Minimum inhibitory concentration ([8]; MHA): > 400 µg/mL | Minimum inhibitory concentration ([8]; NA + G6P (50 μg/ml)): > 400 µg/mL | MIC ([8]; Pseudomonas aeruginosa, J272, NA, read-out: Minimum inhibitory concentration): > 400 µg/mL | MIC ([9]; Anti-3A): 25 µg/mL (≈ 119 µM) | MIC ([9]; MHA): 50 µg/mL (≈ 238 µM) | MIC ([9]; NA + G6P (50 μg/ml)): 25 µg/mL | MIC ([9]; NA): 50 µg/mL (≈ 238 µM) | Minimum inhibitory concentration ([10]; Anti-3A): 50 µg/mL (≈ 238 µM) | MIC ([10]; Bacillus subtilis, PCI219, NA, read-out: Minimum inhibitory concentration): 50 µg/mL (≈ 238 µM) | Minimum inhibitory concentration ([10]; MHA): 50 µg/mL (≈ 238 µM) | Minimum inhibitory concentration ([10]; NA + G6P (50 μg/ml)): 50 µg/mL | MIC [11, 25]: 50 µg/mL (≈ 238 µM) | MIC [11, 26]: 3.12 µg/mL (≈ 14.8 µM) | MIC [11, 27]: 50 µg/mL | MIC [11, 28]: 50 µg/mL (≈ 238 µM) | MIC ([12]; Anti-3A): 25 µg/mL (≈ 119 µM) | MIC ([12]; MHA): 50 µg/mL (≈ 238 µM) | MIC ([12]; NA + G6P (50 μg/ml)): ≥ 50 µg/mL | MIC ([12]; NA): > 50 µg/mL | Minimum inhibitory concentration ([13]; Anti-3A): 6.25 µg/mL (≈ 29.7 µM) | Minimum inhibitory concentration ([13]; MHA): 6.25 µg/mL (≈ 29.7 µM) | Minimum inhibitory concentration ([13]; NA + G6P (50 μg/ml)): 6.25 µg/mL | MIC ([13]; Pseudomonas aeruginosa, G75, NA, read-out: Minimum inhibitory concentration): 6.25 µg/mL (≈ 29.7 µM) | MIC ([14]; Anti-3A): 200 µg/mL (≈ 951 µM) | MIC ([14]; MHA): 50 µg/mL (≈ 238 µM) | MIC ([14]; NA + G6P (50 μg/ml)): 100 µg/mL | MIC ([14]; NA): 200 µg/mL (≈ 951 µM) | MIC ([15]; Anti-3A): > 400 µg/mL | MIC ([15]; MHA): 100 µg/mL (≈ 476 µM) | MIC ([15]; NA + G6P (50 μg/ml)): ≥ 400 µg/mL | MIC ([15]; NA): > 400 µg/mL | Minimum inhibitory concentration ([16]; Anti-3A): 50 µg/mL (≈ 238 µM) | MIC ([16]; Bacillus cereus, NA, read-out: Minimum inhibitory concentration): 50 µg/mL (≈ 238 µM) | Minimum inhibitory concentration ([16]; MHA): 50 µg/mL (≈ 238 µM) | Minimum inhibitory concentration ([16]; NA + G6P (50 μg/ml)): 50 µg/mL | MIC ([17]; Anti-3A): 100 µg/mL (≈ 476 µM) | MIC ([17]; MHA): 50 µg/mL (≈ 238 µM) | MIC ([17]; NA + G6P (50 μg/ml)): 50 µg/mL | MIC ([17]; NA): 50 µg/mL (≈ 238 µM) | MIC ([18]; Anti-3A): 50 µg/mL (≈ 238 µM) | MIC ([18]; MHA): 50 µg/mL (≈ 238 µM) | MIC ([18]; NA + G6P (50 μg/ml)): 100 µg/mL | MIC ([18]; NA): 200 µg/mL (≈ 951 µM) | MIC ([19]; Anti-3A): 100 µg/mL (≈ 476 µM) | MIC ([19]; MHA): 200 µg/mL (≈ 951 µM) | MIC ([19]; NA + G6P (50 μg/ml)): 50 µg/mL | MIC ([19]; NA): 50 µg/mL (≈ 238 µM) | MIC [20, 25]: 12.5 µg/mL (≈ 59.4 µM) | MIC [20, 26]: 3.12 µg/mL (≈ 14.8 µM) | MIC [20, 27]: 12.5 µg/mL | MIC [20, 28]: 12.5 µg/mL (≈ 59.4 µM) | MIC ([21]; Anti-3A): 100 µg/mL (≈ 476 µM) | MIC ([21]; MHA): 50 µg/mL (≈ 238 µM) | MIC ([21]; NA + G6P (50 μg/ml)): 100 µg/mL | MIC ([21]; NA): 100 µg/mL (≈ 476 µM) | antibacterial activity to bacteria of genus Salmonella [22]: particularly strong antibacterial activity | delayed toxicity [23]: entirely free from delayed toxicity
